This passage reports Urinary recovery, Fecal recovery and half-life results from ChEMBL document CHEMBL1126985, “Brush-border-enzyme-mediated intestine-specific drug delivery. Amino acid prodrugs of 5-aminosalicylic acid” (J Med Chem, 1993).

The species entered for series [1] is Rattus norvegicus. Kind of series: Urinary recovery in non-colostomized rats at 2 hr intervals for 48 h. It counts as functional, Urine.
The species named for series [2] is Rattus norvegicus. Kind of series: Urinary recovery in colostomized rats at 2 hr intervals for 48 h. The series is classed as functional, Urine.
Series [3] is filed under the species Rattus norvegicus. The series is described as follows: Fecal recovery in non-colostomized rats at 2 hr intervals for 48 h. The series is classed as functional.
The species entered for series [4] is Rattus norvegicus. The series is described as follows: Fecal recovery in colostomized rats at 2 hr intervals for 48 h. It counts as functional.
Series [5] is described as follows: Half-life was determined by hydrolysis of compound in a solution of peptidases. The series is classed as ADME.

As for `N[C@@H](CC(=O)[O-])C(=O)Nc1ccc(O)c(C(=O)[O-])c1.[Na+].[Na+]`, the values for the Urinary recovery in the series filed under Rattus norvegicus [1] and in the series listed under Rattus norvegicus [2] were 30.09% and 32.66%, respectively. For the same compound, the Fecal recovery in the series listed under Rattus norvegicus [3] amounted to 34.2%; in the series filed under Rattus norvegicus [4] it was 35.73%.

Broadly, the half-life is how long it takes for the measured level to halve. A higher half-life goes with slow decline. For the compound `N[C@@H](CCC(=O)[O-])C(=O)Nc1ccc(O)c(C(=O)[O-])c1.[Na+].[Na+]`, the Urinary recovery in the series filed under Rattus norvegicus [1] turned out to be 32.42%; in the series filed under Rattus norvegicus [2] it was 31.83%. In series [5], this compound registered a half-life of 1.35 h. For the same compound, the Fecal recovery is reported as 44.29% in the series filed under Rattus norvegicus [3] and 44.2% in the series filed under Rattus norvegicus [4].

Take `Nc1ccc(O)c(C(=O)O)c1` [MESALAMINE]: the Urinary recovery in the series listed under Rattus norvegicus [1] was 78.84%; in the series filed under Rattus norvegicus [2], 69.61%. The results for the Fecal recovery in the series listed under Rattus norvegicus [3] and in the series filed under Rattus norvegicus [4] were 4.32% and 5.08%, respectively.

For the compound `O=C(O)c1cc(/N=N/c2ccc(S(=O)(=O)Nc3ccccn3)cc2)ccc1O` [SULFASALAZINE], the Urinary recovery is reported as 32.21% in the series listed under Rattus norvegicus [1] and 33.34% in the series listed under Rattus norvegicus [2]. For the same compound, the figures for the Fecal recovery in the series filed under Rattus norvegicus [3] and in the series listed under Rattus norvegicus [4] were 38.9% and 37.77%, respectively.
